Drawing on patent publication US11136296B2, “Substituted N-arylethyl-2-arylquinoline-4-carboxamides and use thereof” (Bayer Aktiengesellschaft, priority 2017, dated 2021), this text covers IC50 for 29 compounds.

A value given as a limit tells only on which side of the number the result lay.

Chain of FP receptor (P43088 whole entry): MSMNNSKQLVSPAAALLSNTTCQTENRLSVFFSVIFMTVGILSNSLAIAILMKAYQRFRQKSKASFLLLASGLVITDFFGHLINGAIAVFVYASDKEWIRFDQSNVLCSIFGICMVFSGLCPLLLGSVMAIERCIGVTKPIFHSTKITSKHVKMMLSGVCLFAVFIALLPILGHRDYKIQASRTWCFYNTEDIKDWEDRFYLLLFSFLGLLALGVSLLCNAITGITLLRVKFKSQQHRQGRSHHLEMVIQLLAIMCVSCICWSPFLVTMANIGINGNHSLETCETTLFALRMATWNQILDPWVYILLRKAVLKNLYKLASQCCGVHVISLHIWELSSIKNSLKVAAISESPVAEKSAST

For this experiment, the target named is FP receptor (Homo sapiens (Human), UniProt P43088). Nature of the experiment: In vitro test of inhibition of human FP receptor activity (PGF2α-induced calcium flux in FP-expressing CHEM1 cells). The class given is cell-based. Conditions: PGF2α-induced (2 nM) calcium flux in FP-expressing CHEM1 cells; some as mean values from multiple determinations. The text has this:
Table 1 below lists the IC50 values from this assay for individual working examples of the invention (some as mean values from multiple independent individual determinations): […]
In general terms: A change in cytosolic calcium serves as a functional read-out for many receptors and channels.
For orientation: IC50 means the concentration at which inhibition is half-maximal. As to `Cc1c(-c2ccccc2)nc2ccc(Br)cc2c1C(=O)NCC(c1ccccc1Cl)C(C)(C)C(=O)O` (single isomer, unassigned) [Example 112, 4-{[(6-Bromo-3-methyl-2-phenylquinolin-4-yl)carbonyl]amino}-3-(2-chlorophenyl)-2,2-dimethylbutanoic Acid], the IC50 worked out at 92 nM. For the compound `Cc1c(-c2ccccc2)nc2ccc(Br)cc2c1C(=O)NCC(C)(C(=O)O)c1c(F)cccc1F` (single isomer, unassigned; (+)) [Example 33, (+)-3-{[(6-Bromo-3-methyl-2-phenylquinolin-4-yl)carbonyl]amino}-2-(2,6-difluorophenyl)-2-methylpropanoic Acid], the IC50 stood at 190 nM. `Cc1c(-c2ccccc2)nc2ccc(Br)cc2c1C(=O)NCC(CCC(=O)O)c1c(F)cccc1C(F)(F)F` (single isomer, unassigned; (-)) [Example 227, (−)-5-{[(6-Bromo-3-methyl-2-phenylquinolin-4-yl)carbonyl]amino}-4-[2-fluoro-6-(trifluoromethyl)phenyl]pentanoic Acid]: the IC50 came to 1.6 nM. With `COc1cccc(F)c1C(CNC(=O)c1c(C)c(-c2ccccc2)nc2ccc(Br)cc12)CC(=O)O` (racemic) [Example 126, (+/−)-4-{[(6-Bromo-3-methyl-2-phenylquinolin-4-yl)carbonyl]amino}-3-(2-fluoro-6-methoxyphenyl)butanoic Acid], the IC50 came out at 39 nM. For `Cc1cccc(C(CNC(=O)c2c(C)c(-c3ccccc3)nc3ccc(Br)cc23)CC(=O)O)c1` (racemic) [Example 93, (+/−)-4-{[(6-Bromo-3-methyl-2-phenylquinolin-4-yl)carbonyl]amino}-3-(3-methylphenyl)butanoic Acid] the value was 80 nM; for `Cc1c(-c2ccccc2)nc2ccc(Br)cc2c1C(=O)NCC(CC(=O)O)c1cccc(Cl)c1` (racemic) [Example 72, (+/−)-4-{[(6-Bromo-3-methyl-2-phenylquinolin-4-yl)carbonyl]amino}-3-(3-chlorophenyl)butanoic Acid], 45 nM; for `Cc1c(-c2ccccc2)nc2ccc(Br)cc2c1C(=O)NCC(CCC(=O)O)c1c(Cl)ccc(F)c1F` (single isomer, unassigned; (-)) [Example 201, (−)-5-{[(6-Bromo-3-methyl-2-phenylquinolin-4-yl)carbonyl]amino}-4-(6-chloro-2,3-difluorophenyl)pentanoic Acid], 1.2 nM. For `COc1cccc(F)c1C(CNC(=O)c1c(C)c(-c2ccccc2)nc2ccc(Br)cc12)C(=O)O` (single isomer, unassigned; (+)) [Example 58, (+)-3-{[(6-Bromo-3-methyl-2-phenylquinolin-4-yl)carbonyl]amino}-2-(2-fluoro-6-methoxyphenyl)propanoic Acid], the IC50 was 9.7 nM. Consider `Cc1c(-c2ccccc2)nc2ccc(Br)cc2c1C(=O)NCC(C)(C(=O)O)c1ccccc1F` (single isomer, unassigned; (+)) [Example 30, (+)-3-{[(6-Bromo-3-methyl-2-phenylquinolin-4-yl)carbonyl]amino}-2-(2-fluorophenyl)-2-methylpropanoic Acid], for which the IC50 was 340 nM.

In the case of `Cc1c(-c2ccccc2)nc2ccc(Br)cc2c1C(=O)NCC(CCC(=O)O)c1ccccc1OC(F)(F)F` (racemic) [Example 209, (+/−)-5-{[(6-Bromo-3-methyl-2-phenylquinolin-4-yl)carbonyl]amino}-4-[2-(trifluoromethoxy)phenyl]pentanoic Acid], the IC50 amounted to 1.8 nM. Turning to `O=C(O)CCC(CNC(=O)c1c(Cl)c(-c2ccccc2)nc2ccc(Br)cc12)c1c(F)ccc(F)c1Cl` (single isomer, unassigned; (+)) [Example 223, (+)-5-{[(6-Bromo-3-chloro-2-phenylquinolin-4-yl)carbonyl]amino}-4-(2-chloro-3,6-difluorophenyl)pentanoic Acid], the IC50 came out at 12 nM. For `Cc1c(-c2ccccc2)nc2ccc(Br)cc2c1C(=O)NCC(CC(=O)O)c1c(F)cccc1Cl` (single isomer, unassigned; (-)) [Example 88, (−)-4-{[(6-Bromo-3-methyl-2-phenylquinolin-4-yl)carbonyl]amino}-3-(2-chloro-6-fluorophenyl)butanoic Acid], the IC50 is 19 nM.

`Cc1ccc(C(CNC(=O)c2c(C)c(-c3ccccc3)nc3ccc(Br)cc23)CC(=O)O)cc1` (single isomer, unassigned; (-)) [Example 92, (−)-4-{[(6-Bromo-3-methyl-2-phenylquinolin-4-yl)carbonyl]amino}-3-(4-methylphenyl)butanoic Acid]: the IC50 is 320 nM. For `Cc1c(-c2ccccc2)nc2ccc(Br)cc2c1C(=O)NCC(C)(C(=O)O)c1ccccc1Cl` (racemic) [Example 35, (+/−)-3-{[(6-Bromo-3-methyl-2-phenylquinolin-4-yl)carbonyl]amino}-2-(2-chlorophenyl)-2-methylpropanoic Acid] the value was 190 nM; for `Cc1c(-c2ccccc2)nc2ccc(Br)cc2c1C(=O)NCC(C)(CCCC(=O)O)c1ccccc1Cl` (single isomer, unassigned; (+)) [Example 242, (+)-6-{[(6-Bromo-3-methyl-2-phenylquinolin-4-yl)carbonyl]amino}-5-(2-chlorophenyl)-5-methylhexanoic Acid], 16 nM; for `Cc1c(-c2ccccc2)nc2ccc(Br)cc2c1C(=O)NCC(O)(C(=O)O)c1ccccc1` (single isomer, unassigned; (+)) [Example 20, (+)-3-{[(6-Bromo-3-methyl-2-phenylquinolin-4-yl)carbonyl]amino}-2-hydroxy-2-phenylpropanoic Acid], 97 nM. As to `Cc1c(-c2ccccc2)nc2ccc(Br)cc2c1C(=O)NCC(OCC(=O)O)c1ccccc1Cl` (racemic) [Example 191, (+/−)-[2-{[(6-Bromo-3-methyl-2-phenylquinolin-4-yl)carbonyl]amino}-1-(2-chlorophenyl)ethoxy]acetic Acid], the IC50 worked out at 100 nM.

For `Cc1c(-c2ccccc2)nc2ccc(Br)cc2c1C(=O)NCC(C)(CCCC(=O)O)c1ccccc1` (single isomer, unassigned; (-)) [Example 244, (−)-6-{[(6-Bromo-3-methyl-2-phenylquinolin-4-yl)carbonyl]amino}-5-methyl-5-phenylhexanoic Acid], the IC50 is 20 nM.

For the compound `Cc1c(-c2ccccc2)nc2ccc(Br)cc2c1C(=O)NCC(CC(=O)O)c1c(F)cccc1Cl` (racemic) [Example 87, (+/−)-4-{[(6-Bromo-3-methyl-2-phenylquinolin-4-yl)carbonyl]amino}-3-(2-chloro-6-fluorophenyl)butanoic Acid], the IC50 worked out at 23 nM. On to `O=C(O)CCC(CNC(=O)c1c(Cl)c(-c2ccccc2)nc2ccc(Br)cc12)c1ccccc1C(F)(F)F` (racemic) [Example 215, (+/−)-5-{[(6-Bromo-3-chloro-2-phenylquinolin-4-yl)carbonyl]amino}-4-[2-(trifluoromethyl)phenyl]pentanoic Acid], for which the 50% inhibitory concentration (IC50) was determined as 5.4 nM. For `Cc1ccc(F)cc1C(CCC(=O)O)CNC(=O)c1c(C)c(-c2ccccc2)nc2ccc(Br)cc12` (single isomer, unassigned; (+)) [Example 208, (+)-5-{[(6-Bromo-3-methyl-2-phenylquinolin-4-yl)carbonyl]amino}-4-(5-fluoro-2-methylphenyl)pentanoic Acid] the value was 11 nM; for `Cc1c(-c2ccccc2)nc2ccc(Br)cc2c1C(=O)NCC(CC(=O)O)c1ccccn1` (single isomer, unassigned; (+)) [Example 104, (+)-4-{[(6-Bromo-3-methyl-2-phenylquinolin-4-yl)carbonyl]amino}-3-(pyridin-2-yl)butanoic Acid], greater than 1000 nM.

For the compound `Cc1ccc(F)cc1C(CCC(=O)O)CNC(=O)c1c(C)c(-c2ccccc2)nc2ccc(Br)cc12` (racemic) [Example 206, (+/−)-5-{[(6-Bromo-3-methyl-2-phenylquinolin-4-yl)carbonyl]amino}-4-(5-fluoro-2-methylphenyl)pentanoic Acid], the IC50 stood at 13 nM. Consider `COc1ccccc1C(CCC(=O)O)CNC(=O)c1c(C)c(-c2ccccc2)nc2ccc(Br)cc12` (racemic) [Example 166, (+/−)-5-{[(6-Bromo-3-methyl-2-phenylquinolin-4-yl)carbonyl]amino}-4-(2-methoxyphenyl)pentanoic Acid], for which the IC50 was determined as 6.1 nM. Consider `Cc1c(-c2ccccc2)nc2ccc(Br)cc2c1C(=O)NCC(CCC(=O)O)c1c(F)cccc1F` (single isomer, unassigned; (+)) [Example 183, (+)-5-{[(6-Bromo-3-methyl-2-phenylquinolin-4-yl)carbonyl]amino}-4-(2,6-difluorophenyl)pentanoic Acid], for which the half-maximal inhibitory concentration (IC50) is 23 nM. As to `Cc1c(-c2ccccc2)nc2ccc(Br)cc2c1C(=O)NCC(CC(=O)O)c1c(Cl)cccc1Cl` (racemic) [Example 78, (+/−)-4-{[(6-Bromo-3-methyl-2-phenylquinolin-4-yl)carbonyl]amino}-3-(2,6-dichlorophenyl)butanoic Acid], the IC50 amounted to 100 nM. To `Cc1c(-c2ccccc2)nc2ccc(Br)cc2c1C(=O)NCC(CC(=O)O)c1ccc(Cl)cc1` (racemic) [Example 66, (+/−)-4-{[(6-Bromo-3-methyl-2-phenylquinolin-4-yl)carbonyl]amino}-3-(4-chlorophenyl)butanoic Acid] belongs 500 nM; to `Cc1c(-c2ccccc2)nc2ccc(Br)cc2c1C(=O)NCC(c1ccccc1Cl)N(C)CC(=O)O` (single isomer, unassigned; (-)) [Example 188, (−)-N-[2-{[(6-Bromo-3-methyl-2-phenylquinolin-4-yl)carbonyl]amino}-1-(2-chlorophenyl)ethyl]-N-methylglycine], 54 nM. For `Cc1c(-c2ccccc2)nc2ccc(Br)cc2c1C(=O)NCC(CC(=O)O)c1ccccc1` (single isomer, unassigned; (+)) [Example 65, (+)-4-{[(6-Bromo-3-methyl-2-phenylquinolin-4-yl)carbonyl]amino}-3-phenylbutanoic Acid] the value was 220 nM.
